Experimental data taken from patent US7902224B2, “Tetrahydro-naphthalene derivatives as glucocorticoid receptor modulators” (Glaxo Group Limited, priority 2004, dated 2011).

Columns and labels:
glucocorticoid receptor = target: T1, glucocorticoid receptor (Homo sapiens, UniProt P04150); experiment: Glucocorticoid receptor binding assay (fluorescence polarisation competition); details: displacement of fluorescent glucocorticoid, 22° C., 2 hours; read-out: pIC50 glucocorticoid receptor binding assay (converted)
T1 construct: purchased Pan Vera (Madison, Wis., USA)
T1 sequence (P04150 1-777): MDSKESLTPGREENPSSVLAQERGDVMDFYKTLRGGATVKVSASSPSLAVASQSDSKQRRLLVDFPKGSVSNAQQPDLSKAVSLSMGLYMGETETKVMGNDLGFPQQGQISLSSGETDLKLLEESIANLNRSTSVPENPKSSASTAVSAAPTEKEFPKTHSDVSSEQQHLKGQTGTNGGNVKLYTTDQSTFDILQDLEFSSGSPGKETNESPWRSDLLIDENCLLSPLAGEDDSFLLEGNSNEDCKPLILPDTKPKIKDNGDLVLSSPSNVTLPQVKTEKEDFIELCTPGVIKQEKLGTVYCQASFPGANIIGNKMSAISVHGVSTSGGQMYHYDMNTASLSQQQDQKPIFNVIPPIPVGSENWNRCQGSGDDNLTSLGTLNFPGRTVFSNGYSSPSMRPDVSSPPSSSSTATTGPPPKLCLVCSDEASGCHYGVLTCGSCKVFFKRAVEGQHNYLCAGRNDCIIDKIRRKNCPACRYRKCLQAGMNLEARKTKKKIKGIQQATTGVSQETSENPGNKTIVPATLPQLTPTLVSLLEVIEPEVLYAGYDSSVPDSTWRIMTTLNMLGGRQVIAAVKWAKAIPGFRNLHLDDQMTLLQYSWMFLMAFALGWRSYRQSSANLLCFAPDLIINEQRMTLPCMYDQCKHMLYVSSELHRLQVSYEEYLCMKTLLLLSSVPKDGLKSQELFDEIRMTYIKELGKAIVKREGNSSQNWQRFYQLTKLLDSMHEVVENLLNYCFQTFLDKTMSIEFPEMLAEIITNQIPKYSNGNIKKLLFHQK
Method: Glucocorticoid Receptor Binding Assay
The ability of compounds to bind to the glucocorticoid receptor was determined by assessing their ability to compete with fluorescent-labelled glucocortioid using a kit supplied by Pan Vera (Madison, Wis., USA) or using in house reagents. Compounds were solvated and diluted in DMSO, and transferred directly into assay plates. Fluorescent glucocorticoid and partially purified glucocorticoid receptor with a stabilisation peptide were added to the plates and incubated at 22° C. for 2 hours in the dark. Binding of the compound was assessed by analysing the displacement of fluorescent ligand by measuring the decrease in fluorescence polarisation signal from the mixture.

NFkB activity = experiment: Glucocorticoid mediated transrepression of NFkB activity (A549 ELAM promoter alkaline phosphatase reporter, TNFα stimulated); assay type: cell-based; details: A549 cells, 3 ng/ml human recombinant TNFα, 16 hours; read-out: pIC50 NFkB assay (converted)
Text: Glucocorticoid mediated Transrepression of NFkB activity.
Human A549 lung epithelial cells were engineered to contain a secreted placental alkaline phosphatase gene under the control of the distal region of the NFkB dependent ELAM promoter as previously described in Ray, K. P., Farrow, S., Daly, M., Talabot, F. and Searle, N. “Induction of the E-selectin promoter by interleukin 1 and tumour necrosis factor alpha, and inhibition by glucocorticoids” Biochemical Journal. 1997 328 707-15.
Compounds were solvated and diluted in DMSO, and transferred directly into assay plates such that the final concentration of DMSO was 0.7%. Following the addition of cells (40K per well), plates were incubated for 1 hr prior to the addition of 3 ng/ml human recombinant TNFα. Following continued incubation for 16 hours, alkaline phosphatase activity was determined by measuring the change in optical density at 405 nm with time following the addition of 0.7 volumes of assay buffer (1 mg/ml p-nitrophenylphosphate dissolved in 1 M diethanolamine, 0.28M NaCl, 0.5 mM MgCl2).

[1] = system: MMTV driven gene expression; experiment: Glucocorticoid mediated transactivation of MMTV driven gene expression (luciferase reporter); assay type: cell-based, Human; details: A549 or MG63 cells, 6 hr incubation
Text: Glucocorticoid Mediated Transactivation of MMTV Driven Gene Expression
Human A549 lung epithelial cells or human MG63 osteosarcoma were engineered to contain a renialla luciferase gene under the control of the distal region of the LTR from the mouse mammary tumour virus as previously described (Austin, R. H., Maschera, B., Walker, A., Fairbairn, L., Meldrum, E., Farrow, S. and Uings, I. J. Mometasone furoate is a less specific glucocorticoid than fluticasone propionate. European Respiratory Journal 2002 20 1386-1392).
Compounds were solvated and diluted in DMSO, and transferred directly into assay plates such that the final concentration of DMSO was 0.7%. Following the addition of cells (40K per well), plates were incubated for 6 hr. Luciferase activity was determined using the Firelight kit (Packard, Pangbourne, UK).

Structure (SMILES) | IC50 (glucocorticoid receptor) [nM] | IC50 (NFkB activity) [nM] | efficacy in the MMTV transactivation assay compared to the NFkB assay [1]
CC1(CC(O)(CNc2cccc3ncccc23)C(F)(F)F)CCCc2ccccc21 (single isomer, unassigned) [Example 1-D1E1, 1,1,1-Trifluoro-3-(1-methyl-1,2,3,4-tetrahydro-1-naphthalenyl)-2-[(5-guinolinylamino)methyl]-2-propanol] | < 100 | < 31.6 | reduced efficacy
Cc1ccc2c(NCC(O)(CC3(C)CCCc4ccccc43)C(F)(F)F)cccc2n1 (single isomer, unassigned) [Example 2-D1, 1,1,1-Trifluoro-3-[(2-methyl-5-quinolinyl)amino]-2-[(1-methyl-1,2,3,4-tetrahydro-1-naphthalenyl)methyl]-2-propanol] | < 100 | < 31.6 | reduced efficacy
Cc1ccc2c(NCC(O)(CC3(C)CCCc4ccccc43)C(F)(F)F)cccc2n1 (single isomer, unassigned) [Example 2-D1E1, 1,1,1-Trifluoro-3-[(2-methyl-5-quinolinyl)amino]-2-[(1-methyl-1,2,3,4-tetrahydro-1-naphthalenyl)methyl]-2-propanol] | – | – | reduced efficacy
Cc1ccc2c(NCC(O)(CC3(C)CCCc4ccccc43)C(F)(F)F)cccc2n1 (single isomer, unassigned) [Example 2-D2, 1,1,1-Trifluoro-3-[(2-methyl-5-quinolinyl)amino]-2-[(1-methyl-1,2,3,4-tetrahydro-1-naphthalenyl)methyl]-2-propanol] | – | – | reduced efficacy
Cc1ccc2c(NCC(O)(CC3(C)CCCc4ccccc43)C(F)(F)F)cccc2n1 (single isomer, unassigned) [Example 2-D2E1, 1,1,1-Trifluoro-3-[(2-methyl-5-quinolinyl)amino]-2-[(1-methyl-1,2,3,4-tetrahydro-1-naphthalenyl)methyl]-2-propanol] | – | – | reduced efficacy
Cc1ccc2c(NCC(O)(CC3(C)CCCc4ccccc43)C(F)(F)F)cccc2n1 (single isomer, unassigned) [Example 2-D2E2, 1,1,1-Trifluoro-3-[(2-methyl-5-quinolinyl)amino]-2-[(1-methyl-1,2,3,4-tetrahydro-1-naphthalenyl)methyl]-2-propanol] | – | – | reduced efficacy
CC1(CC(O)(CNc2cccc3cnccc23)C(F)(F)F)CCCc2ccccc21 (single isomer, unassigned) [Example 3-D1E2, 1,1,1-Trifluoro-3-(5-isoguinolinylamino)-2-[(1-methyl-1,2,3,4-tetrahydro-1-naphthalenyl)methyl]-2-propanol] | – | < 31.6 | reduced efficacy
CC1(CC(O)(CNc2cccc3cnccc23)C(F)(F)F)CCCc2ccccc21 (single isomer, unassigned) [Example 3-D2E1, 1,1,1-Trifluoro-3-(5-isoguinolinylamino)-2-[(1-methyl-1,2,3,4-tetrahydro-1-naphthalenyl)methyl]-2-propanol] | < 100 | – | reduced efficacy
CCC1(CC(O)(CNc2cccc3cnccc23)C(F)(F)F)CCCc2ccccc21 (single isomer, unassigned) [Example 4-D1, 3-(1-Ethyl-1,2,3,4-tetrahydro-1-naphthalenyl)-1,1,1-trifluoro-2-[(5-isoquinolinylamino)methyl]-2-propanol] | < 100 | – | reduced efficacy
CCC1(CC(O)(CNc2cccc3cnccc23)C(F)(F)F)CCCc2ccccc21 (single isomer, unassigned) [Example 4-D1E2, 3-(1-Ethyl-1,2,3,4-tetrahydro-1-naphthalenyl)-1,1,1-trifluoro-2-[(5-isoquinolinylamino)methyl]-2-propanol] | – | < 31.6 | reduced efficacy
CCC1(CC(O)(CNc2cccc3nc(C)ccc23)C(F)(F)F)CCCc2ccccc21 (single isomer, unassigned) [Example 5-D1, 3-(1-Ethyl-1,2,3,4-tetrahydro-1-naphthalenyl)-1,1,1-trifluoro-2-[[(2-methyl-5-quinolinyl)amino]methyl]-2-propanol] | < 100 | < 31.6 | reduced efficacy
CCC1(CC(O)(CNc2cccc3nc(C)ccc23)C(F)(F)F)CCCc2ccccc21 (single isomer, unassigned) [Example 5-D1E1, 3-(1-Ethyl-1,2,3,4-tetrahydro-1-naphthalenyl)-1,1,1-trifluoro-2-[[(2-methyl-5-quinolinyl)amino]methyl]-2-propanol] | – | – | reduced efficacy
CCC1(CC(O)(CNc2cccc3nc(C)ccc23)C(F)(F)F)CCCc2ccccc21 (single isomer, unassigned) [Example 5-D2, 3-(1-Ethyl-1,2,3,4-tetrahydro-1-naphthalenyl)-1,1,1-trifluoro-2-[[(2-methyl-5-quinolinyl)amino]methyl]-2-propanol] | – | – | reduced efficacy
CCC1(CC(O)(CNc2cccc3nc(C)ccc23)C(F)(F)F)CCCc2ccccc21 (single isomer, unassigned) [Example 5-D2E1, 3-(1-Ethyl-1,2,3,4-tetrahydro-1-naphthalenyl)-1,1,1-trifluoro-2-[[(2-methyl-5-quinolinyl)amino]methyl]-2-propanol] | – | – | reduced efficacy
CC1(CC(O)(CNc2cccc3ncccc23)C(F)(F)F)CCCc2ccccc21 (stereo not shown) [Example 1-D1, 1,1,1-Trifluoro-3-(1-methyl-1,2,3,4-tetrahydro-1-naphthalenyl)-2-[(5-guinolinylamino)methyl]-2-propanol] | < 100 | < 31.6 | reduced efficacy
CC1(CC(O)(CNc2cccc3cnccc23)C(F)(F)F)CCCc2ccccc21 (stereo not shown) [Example 3-D1, 1,1,1-Trifluoro-3-(5-isoguinolinylamino)-2-[(1-methyl-1,2,3,4-tetrahydro-1-naphthalenyl)methyl]-2-propanol] | < 100 | < 31.6 | reduced efficacy
CC1(CC(O)(CNc2cccc3cnccc23)C(F)(F)F)CCCc2ccccc21 (stereo not shown) [Example 3-D2, 1,1,1-Trifluoro-3-(5-isoguinolinylamino)-2-[(1-methyl-1,2,3,4-tetrahydro-1-naphthalenyl)methyl]-2-propanol] | – | – | reduced efficacy
CCC1(CC(O)(CNc2cccc3ncccc23)C(F)(F)F)CCCc2ccccc21 (stereo not shown) [Example 6-D1, 3-(1-Ethyl-1,2,3,4-tetrahydro-1-naphthalenyl)-1,1,1-trifluoro-2-[(5-guinolinylamino)methyl]-2-propanol] | < 100 | < 31.6 | reduced efficacy
